Each structure is given as a SMILES string.

This test addresses T1, N-terminally GST-tagged human full length recombinant Mps-1 kinase (Homo sapiens, UniProt P33981).
T1 construct: N-terminally GST-tagged human full length recombinant Mps-1 kinase; purchased Invitrogen, Karslruhe, Germany PV4071
T1 sequence (P33981 1-857): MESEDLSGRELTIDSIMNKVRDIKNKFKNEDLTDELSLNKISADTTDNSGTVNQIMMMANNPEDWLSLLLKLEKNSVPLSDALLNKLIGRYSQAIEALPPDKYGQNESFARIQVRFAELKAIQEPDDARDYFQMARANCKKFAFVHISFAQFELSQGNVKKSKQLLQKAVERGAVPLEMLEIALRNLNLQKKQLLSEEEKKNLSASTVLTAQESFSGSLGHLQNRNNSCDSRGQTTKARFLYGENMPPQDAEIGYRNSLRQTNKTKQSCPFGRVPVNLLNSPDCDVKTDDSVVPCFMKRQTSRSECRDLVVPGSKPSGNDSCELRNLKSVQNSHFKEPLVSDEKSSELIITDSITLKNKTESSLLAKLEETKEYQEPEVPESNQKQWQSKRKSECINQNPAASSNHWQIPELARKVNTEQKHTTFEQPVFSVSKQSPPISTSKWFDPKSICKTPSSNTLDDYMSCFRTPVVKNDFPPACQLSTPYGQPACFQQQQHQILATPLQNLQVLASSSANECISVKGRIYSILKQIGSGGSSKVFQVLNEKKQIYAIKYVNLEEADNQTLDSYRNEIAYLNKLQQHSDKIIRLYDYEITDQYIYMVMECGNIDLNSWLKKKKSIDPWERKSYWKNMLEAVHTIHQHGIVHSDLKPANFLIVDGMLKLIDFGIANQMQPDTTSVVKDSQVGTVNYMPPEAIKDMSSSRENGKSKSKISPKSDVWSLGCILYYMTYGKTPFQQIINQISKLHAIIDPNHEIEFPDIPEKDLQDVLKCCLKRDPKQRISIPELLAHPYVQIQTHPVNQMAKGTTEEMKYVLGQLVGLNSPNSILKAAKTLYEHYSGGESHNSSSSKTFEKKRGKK
The test can be described thus: Mps-1 kinase assay (TR-FRET). Type of test: biochemical. Conditions: Mps1 IC50 [nM], 10 μM ATP, 1 μM peptide substrate, 60 min at 22° C. The gist of the method:
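Next, Eu-labelled anti-phospho(Ser/Thr) antibody and SA-XLent bind for 1 h at 22° C. Finally, energy transfer quantifies phosphorylated product.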
(In general: In TR-FRET formats the signal depends on donor and acceptor labels being close together.)
In general, IC50 refers to the concentration that inhibits the measured activity by half. Turning to `Cc1cc(-c2cnc3c(NCC(C)(C)O)cc(Sc4ccc(Cl)cc4CO)nn23)ccc1C(=O)NC1CC1` [Example 393, 4-(6-{[4-chloro-2-(hydroxymethyl)phenyl]sulfanyl}-8-[(2-hydroxy-2-methylpropyl)amino]imidazo[1,2-b]pyridazin-3-yl)-N-cyclopropyl-2-methylbenzamide], the IC50 is 2.3 nM.

For `Cc1cc(-c2cnc3c(NCC(C)(C)O)cc(Sc4ccccc4O)nn23)ccc1C(=O)NC1CC1` [Example 73A, N-cyclopropyl-4-{8-[(2-hydroxy-2-methylpropyl)amino]-6-[(2-hydroxyphenyl)sulfanyl]imidazo[1,2-b]pyridazin-3-yl}-2-methylbenzamide], the IC50 was less than 0.7 nM. For `Cc1cc(-c2cnc3c(NCCC(F)(F)F)cc(Nc4cccnc4)nn23)ccc1C(=O)NC1CC1` [Example 439, N-cyclopropyl-2-methyl-4-{6-(pyridin-3-ylamino)-8-[(3,3,3-trifluoropropyl)amino]imidazo[1,2-b]pyridazin-3-yl}benzamide] the value was 0.2 nM. In the case of `Cc1cc(-c2cnc3c(NCCO)cc(Sc4cccc(F)c4)nn23)ccc1C(=O)NC1CC1` [Example 276, N-cyclopropyl-4-{6-[(3-fluorophenyl)sulfanyl]-8-[(2-hydroxyethyl)amino]imidazo[1,2-b]pyridazin-3-yl}-2-methylbenzamide] it was 0.1 nM; in that of `Cc1ccc(O)cc1Nc1cc(NCCC(F)(F)F)c2ncc(-c3ccc(C(=O)NC4CC4)c(C)c3)n2n1` [Example 443, N-cyclopropyl-4-{6-[(5-hydroxy-2-methylphenyl)amino]-8-[(3,3,3-trifluoropropyl)amino]imidazo[1,2-b]pyridazin-3-yl}-2-methylbenzamide], 0.1 nM. Take `Cc1ccc(F)cc1Oc1cc(NCCS(C)(=O)=O)c2ncc(-c3ccc(C(=O)NC4CC4)c(C)c3)n2n1` [Example 517, N-cyclopropyl-4-[6-(5-fluoro-2-methylphenoxy)-8-{[2-(methylsulfonyl)ethyl]amino}imidazo [1,2-b]pyridazin-3-yl]-2-methylbenzamide]: the IC50 amounted to 0.2 nM. Consider `Cc1cc(-c2cnc3c(NCC(C)(C)O)cc(Sc4ccccc4)nn23)ccc1C(=O)NC1CC1` [Example 214, N-cyclopropyl-4-{8-[(2-hydroxy-2-methylpropyl)amino]-6-(phenylsulfanyl)imidazo[1,2-b]pyridazin-3-yl}-2-methylbenzamide], for which the 50% inhibitory concentration (IC50) was less than 1 nM. In the case of `Cc1cc(-c2cnc3c(NCC(C)(C)O)cc(Nc4ccccc4O)nn23)ccc1C(=O)NC1CC1` [Example 431, N-cyclopropyl-4-{8-[(2-hydroxy-2-methylpropyl)amino]-6-[(2-hydroxyphenyl)amino]imidazo[1,2-b]pyridazin-3-yl}-2-methylbenzamide] it was 0.1 nM; in that of `Cc1cc(-c2cnc3c(NCC(C)(C)O)cc(C4=CCOCC4)nn23)ccc1C(=O)NC1CC1` [Example 166, N-cyclopropyl-4-{6-(3,6-dihydro-2H-pyran-4-yl)-8-[(2-hydroxy-2-methylpropyl)amino]imidazo[1,2-b]pyridazin-3-yl}-2-methylbenzamide], 5.3 nM. For `COc1cc(C(=O)NC2CC2)ccc1-c1cnc2c(NCC(C)(C)O)cc(Sc3cccc(F)c3)nn12` [Example 62B, N-cyclopropyl-4-{6-[(3-fluorophenyl)sulfanyl]-8-[(2-hydroxy-2-methylpropyl)amino]imidazo[1,2-b]pyridazin-3-yl}-3-methoxybenzamide] the value was 11.5 nM; for `Cc1cc(Nc2cc(NCCC(F)(F)F)c3ncc(-c4ccc(C(=O)NC5CC5)c(C)c4)n3n2)ccc1F` [Example 428, N-cyclopropyl-4-{6-[(4-fluoro-3-methylphenyl)amino]-8-[(3,3,3-trifluoropropyl)amino]imidazo[1,2-b]pyridazin-3-yl}-2-methylbenzamide], 0.4 nM; for `Cc1cc(-c2cnc3c(NCC(C)(C)O)cc(-c4ccccc4F)nn23)ccc1C(=O)NC1CC1` [Example 233, N-cyclopropyl-4-{6-(2-fluorophenyl)-8-[(2-hydroxy-2-methylpropyl)amino]imidazo[1,2-b]pyridazin-3-yl}-2-methylbenzamide], 1.7 nM.

Consider `Cc1cc(-c2cnc3c(NCC(C)(C)O)cc(Oc4cncc(C(N)=O)c4)nn23)ccc1C(=O)NC1CC1` [Example 411, 5-({3-[4-(cyclopropylcarbamoyl)-3-methylphenyl]-8-[(2-hydroxy-2-methylpropyl)amino]imidazo[1,2-b]pyridazin-6-yl}oxy)nicotinamide], for which the IC50 came out at 4.8 nM.

As for `Cc1ccc(F)c(Oc2cc(NCC(C)(C)O)c3ncc(-c4ccc(C(=O)NC5CC5)c(C)c4)n3n2)c1` [Example 81, N-cyclopropyl-4-{6-(2-fluoro-5-methylphenoxy)-8-[(2-hydroxy-2-methylpropyl)amino]imidazo[1,2-b]pyridazin-3-yl}-2-methylbenzamide], the IC50 stood at 0.2 nM. For `Cc1cc(-c2cnc3c(NCCC(F)(F)F)cc(Oc4ccc(OC(C)C)cc4)nn23)ccc1C(=O)NC1CC1` [Example 257, N-cyclopropyl-4-{6-(4-isopropoxyphenoxy)-8-[(3,3,3-trifluoropropyl)amino]imidazo[1,2-b]pyridazin-3-yl}-2-methylbenzamide] the value was 0.4 nM; for `Cc1c[nH]c(Sc2cc(NCC(C)(C)O)c3ncc(-c4ccc(C(=O)NC5CC5)c(C)c4)n3n2)n1` [Example 317, N-cyclopropyl-4-{8-[(2-hydroxy-2-methylpropyl)amino]-6-[(4-methyl-1H-imidazol-2-yl)sulfanyl]imidazo[1,2-b]pyridazin-3-yl}-2-methylbenzamide], 7.4 nM; for `Cc1cc(-c2cnc3c(NCC(C)(C)O)cc(Nc4ccc(Cl)c(F)c4)nn23)ccc1C(=O)NC1CC1` [Example 401, 4-{6-[(4-chloro-3-fluorophenyl)amino]-8-[(2-hydroxy-2-methylpropyl)amino]imidazo[1,2-b]pyridazin-3-yl}-N-cyclopropyl-2-methylbenzamide], 1 nM. For `CC(C)(O)CNc1cc(C2=CCCCC2)nn2c(-c3ccc(C(=S)NC4CC4)cc3)cnc12` [Example 43, 4-{6-(Cyclohex-1-en-1-yl)-8-[(2-hydroxy-2-methylpropyl)amino]imidazo[1,2-b]pyridazin-3-yl}-N-cyclopropylbenzenecarbothioamide] the value was 21.1 nM; for `CSc1cc(NCCS(=O)(=O)N2CCOCC2)c2ncc(-c3ccc(C(=O)NC4CC4)c(C)c3)n2n1` [Example 231, N-cyclopropyl-2-methyl-4-[6-(methylsulfanyl)-8-{[2-(morpholin-4-ylsulfonyl)ethyl]amino}imidazo[1,2-b]pyridazin-3-yl]benzamide], 14.3 nM. In the case of `Cc1cc(-c2cnc3c(NCCC(F)(F)F)cc(-c4ccc(F)cc4)nn23)ccc1C(=O)NC1CC1` [Example 28, N-cyclopropyl-4-{6-(4-fluorophenyl)-8-[(3,3,3-trifluoropropyl)amino]imidazo[1,2-b]pyridazin-3-yl}-2-methylbenzamide] it was less than 1 nM; in that of `Cc1cc(-c2cnc3c(NCC(C)(C)N)cc(Oc4ccc(Cl)cc4)nn23)ccc1C(=O)NC1CC1` [Example 521, 4-{8-[(2-amino-2-methyl-propyl)amino]-6-(4-chloro-phenoxy)imidazo[1,2-b]pyridazin-3-yl}-N-cyclopropyl-2-methylbenzamide], 0.3 nM; in that of `CNC(=O)c1ccc(-c2cnc3c(NCCOC)cc(Oc4cc(F)ccc4C)nn23)cc1C` [Example 585, 4-{6-(5-fluoro-2-methylphenoxy)-8-[(2-methoxyethyl)a-mino]imidazo[1,2-b]pyridazin-3-yl}-N,2-dimethylbenzamide], 5.4 nM. With `Cc1cc(-c2cnc3c(NCC(C)(C)O)cc(Sc4nnc[nH]4)nn23)ccc1C(=O)NC1CC1` [Example 316, N-cyclopropyl-4-{8-[(2-hydroxy-2-methylpropyl)amino]-6-(4H-1,2,4-tri-azol-3-ylsulfanyl)imidazo [1,2-b]pyridazin-3-yl}-2-methylbenzamide], the IC50 was found to be 118 nM.

In the case of `Cc1cc(-c2cnc3c(NCC(C)(C)O)cc(-c4cc[nH]n4)nn23)ccc1C(=O)NC1CC1` [Example 160, N-cyclopropyl-4-{8-[(2-hydroxy-2-methylpropyl)amino]-6-(1H-pyrazol-3-yl)imidazo[1,2-b]pyridazin-3-yl}-2-methylbenzamide], the IC50 is 13.6 nM. As to `CCNC(=O)c1ccc(-c2cnc3c(NCCC(F)(F)F)cc(Oc4ccc(OC)c(F)c4)nn23)cc1C` [Example 604, N-ethyl-4-{6-(3-fluoro-4-methoxyphenoxy)-8-[(3,3,3-trifluoropropyl)a-mino]imidazo[1,2-b]pyridazin-3-yl}-2-methylbenzamide], the IC50 is less than 1 nM.

For the origin of these results see patent publication US9255100B2 (BAYER INTELLECTUAL PROPERTY GMBH, priority 2010, dated 2016).
